For assay [1], the system named is U373MG cells. Description: 3D migration assay, U373MG spheroids in plasma clot. Format: cell-based, human. Conditions: U373MG, 100 ng/ml, 24 h plasma clot. How it is done:
Supplementary Figure S6: The anti-tumor effect of MTP-PlxA1 was verified in U373MG human GBM line. We found […]
Because PlexA1 is involved in cell migration we also performed a 3D migration assay. U373MG cells were grown as cell aggregates (micro tumor-like spheroids) for 24 h in plasma clot with or without VEGF. […]
migration that formed cell chains invading the 3D substrate as previously described (12). Strikingly, VEGF-induced cell migration was abolished when MTP-PlexA1 at 10–7 M was added to the cultures. […]
of PlexA1, this part of the study exemplified the therapeutic potential of MTP-PlexA1 because this peptide was able to block two major mechanisms of tumor progression.
(Stable Disease) and 62.5% PR (Partial Response).
(§1) (1 picture or pasted object on this page, not shown here)

The test system of assay [2] is PlexA1 TMD. Kind of assay: bacterial two-hybrid (BACTH) assay of TMD interactions with PlexA1 TMD. Format: binding. Particulars: Zip sequence positive control, Empty negative control. An excerpt:
To further explore the TMD interactions of PlexA1 we used a bacterial two-hybrid system for a more systematic analysis of TMD interactions. TMD sequences of PlexA1 and various potential interacting partners including NRP1 and all other members of the Plexin-A family were co-expressed in the bacteria to define the hierarchy of the interactions.
(§2) “Zip sequence” is the positive control of dimerization and “Empty” is the negative control of this bacterial system. (C, D) SPR assay (Biacore) to quantify MTP-PlexA1 interactions with PLexA1, NRP1 and VEGFR2 TMDs. (E) Proximity ligation assay showing that MTP-PlexA1 (10^−7 M) decreases the number of PLexA1-NRP1 interactions (green dots) in U373MG cells (scale bar = 20 μm).

In assay [3] the test system is NRP1. Conditions: cited from earlier work. An excerpt:
Glioblastoma (GBM) is a devastating disease with poor prognosis. Highly infiltrative and vascularized, these tumors are composed of multi-clonal cell types with various migratory and proliferative properties, and are genetically very heterogeneous. This obvious cellular heterogeneity largely accounts for the observed resistance to all available therapeutic strategies including, surgery, radiotherapy and chemotherapy. Significant recent progress in targeted therapy comprises blocking various receptor tyrosine kinases (RTK) or inhibiting angiogenesis. However, the clinica ...

The subject of assay [4] is NRP1/PlexA1 complexes. Description: in situ proximity ligation assay (Duo-link), NRP1/PlexA1 complexes in U373MG cells. The class given is cell-based, human. Particulars: specificity control, MTP-Neu at 10–6 M. How it is done:
as §2
Additional specificity controls were performed using a mutated version of MTP-PlexA1 (in which 3 glycines of the GxxxGxxxG motif were replaced by 3 valines or MTP-Neu, an anti-breast cancer peptide known to not interact with PlexA1) as described in Supplementary Figure S2. […] Similar results were obtained when cells were exposed to VEGF (39.4% NRP1 and 35.4% PlexA4, Figure 4B).
Supplementary Figure S2: Specificity controls were performed using a mutated version of MTP-PlexA1 […]
LVIVAVLIAYKRK). Such mutations have been previously shown to be sufficient to lose activity of NRP1 antagonist membrane domain targeting peptide (Roth et al., 2008 Mol Biol Cell). We also used MTP-Neu, a transmembrane domain targeting peptide known to […]
M, a concentration previously shown to produce maximal antagonist activity of the peptide. Additionally, we also repeated the in vitro angiogenic assay on matrigel using HUVEC cells. […]
to MTP-PlexA1. These experiments confirmed the specificity of MTP-PlexA1.
as §1

Assay [5] has as its system HUVEC cells. Description: pseudo-tube formation assay, HUVEC on matrigel. The class given is cell-based, human. Particulars: specificity control. An excerpt: We observed PlexA1 positive blood vessels in the tissue array of GBM samples (Figure 5A). […] To address this possibility we first used a transgenic zebra-fish model tg(kdrl:eGFP) highlighting the endothelial cells. This allowed us to assess the angiogenic activities in vivo by analyzing formation of intersegmental vessels (ISVs) after morpholino-based knockdown of the target.
Figure 5 MTP-PlexA1 inhibits developmental and tumor-specific PlexA1 pro-angiogenic role (A) Microphotographs illustrating the expression of PlexA1 in vascular-like structures in human glioma tissues. (Scale bar: 40 μm). (B) Morpholino-based PlexA1 knockdown in Zebrafish tg(kdrl:eGFP) line. Representative images of control, Plexin-A1 mismatch and Pexin-A1 knockdown embryos (plxna1MO) are shown 28 hours post fertilization (28hpf). […] (E) Live-monitoring of VEGF-induced HUVEC cell migration assay using the XCelligence system (transwell assay). (F) Microphotographs illustrating the expression of PlexA1 in blood vessels of the chick chorioallontoic membrane (upper left picture). Microphotographs (middle and lower left pictures) and camera lucida drawing (middle and lower right pictures) showing representative fields of observation after 24 h incubation with VEGF (100 ng/ml, +vehicle) or VEGF + MTP-PlexA1 (10^−7 M). The number of VEGF-induced new blood vessels is shown in the graph. […]

The test system of assay [6] is p-Akt/Akt. Description: western blot of Akt phosphorylation in U373MG cells. The class given is cell-based, human. Conditions: p-Akt/Akt ratio, western blot, Sema3A 100 ng/ml. How it is done:
(C) Rac-1 activation assay in resting condition and after Sema3A-induced Rac-1 activation in U373 MG cells. (D) Western blot analysis of phosphorylated Akt, total Akt and tubulin in U373MG cells treated with the vehicle (LDS 72 μM), Sema3A (100 ng/ml) or Sema3A + MTP-PlexA1 (10^−7 M). The lower panel is showing the quantification of the p-Akt/Akt ratio in the different conditions. (E) MTP-PlexA1 decreases VEGFR-2 phosphorylation induced by VEGF (100 ng/ml) in HUVEC cells. […]
in 20 mM sodium acetate (pH 4.5) at a flow rate of 5 μl/ min 10–7 M of MTP-PlexA1 or Vehicle (LDS, 72 µM) during until desired surface densities, measured in response 1 h. Stimulation was done with 100ng/ml Semaphorin 3A units, were reached. […] First antibodies (Rabbit anti-phospho-the elution buffer containing detergent removed non- akt, Rabbit anti-akt, Cell Signaling #4060 and #9272 biotinylated peptides rendering the chip ready for analysis respectively) and mouse anti-tubulin α (Cell Signaling with monomeric biot-MTP-PlexA1. Blank surfaces were #2144) were incubated overnight at 4°C (+ anti-NRP1, used for background corrections. Injections of 30 µl anti-PlexA4 Abcam). […] Images of the immuno-blots cells per well in a 6-well plate and serum starved overnight. were acquired and analyzed thanks to the GENE GNOME Before protein extraction, the cells were treated either with apparatus (Syngene Bio Imaging, UK).

Entries after “also recorded” stand apart in the source; their conditions may differ.

In the case of VEGF [reference compound], the “tumor cell migration induced by VEGF” value in assay [1] is reported as “induced tumor cell”.

With “SMEIVILVGTGVIAVFFWVLLLLIFCNRRK [VEGFR-3, TMD of VEGFR-3 in BACTH assay]”, in assay [2], the “interaction with PlexA1 TMD” value is listed as “no significant interaction”.

“ISIISAVVGILLVVVLGVVFGILIKRR [HER2, TMD of HER2 in BACTH assay]”: in assay [2], the “interaction with PlexA1 TMD” value is reported as “no significant interaction”.

For the molecule “ILITIIAMSALGVLLGAVCGVVLYRKR [MTP-NRP1, synthetic peptide mimicking the TMD of NRP1]”, in assay [3], the NRP1 dimerization antagonism entry is recorded as “potent inhibitor by antagonizing dimerization” and the brain tumor growth result is listed as “reducing brain tumor growth”. The “tumor cell migration and angiogenesis” value in assay [3] (in vitro and in vivo) is “impaired tumor cell migration and angiogenesis”.

Take “NLELITLCTCVAATLFWLLLTLFIRKK [VEGFR-1, TMD of VEGFR-1 in BACTH assay]”: the “interaction with PlexA1 TMD” value in assay [2] is “no significant interaction”.

On to “ILITIIAMSALGVLLGAVCGVVLYRKR [NRP1, TMD of Neuropilin-1 in BACTH assay]”, for which, in assay [2], the “interaction with PlexA1 TMD” value is reported as “significant interaction”.

On to “IIPIVAGVVAGIVLIGLALLLIWKLLKR [Integrin Beta-1, TMD of Integrin β-1 in BACTH assay]”, for which the “interaction with PlexA1 TMD” value in assay [2] was “no significant interaction”.

In the case of “TLPAMMGLAAGGGLLLLAITAVLVAYKRK [Plexin-A3, TMD of Plexin A3 in BACTH assay]”, the “interaction with PlexA1 TMD” value in assay [2] was “weaker interactions”.

Consider “IIILVGTAVIAMFFWLLLVIILRTVKRK [VEGFR-2, TMD of VEGFR-2 in BACTH assay]”, for which, in assay [2], the “interaction with PlexA1 TMD” value is listed as “no significant interaction”.

For “TLPAIVVIGGVGVLLLLVIVAVLIAYKRK [MTP-PlexA1mut]”, the “disruption of NRP1/PlexA1 dimers” value in assay [4] is “not by mutated MTP-PlexA1mut peptide”. In addition, the “effect on number of tube-like structures (HUVEC on matrigel)” value in assay [5] was “not able to decrease tube like structure; also recorded: not able to reduce the number of tube-like structures”.

For the molecule “TLPAIVGIGGGGGLLLLVIVAVLIAYKRK [PlexA1, TMD of Plexin A1 in BACTH assay]”, the “interaction with PlexA1 TMD” value in assay [2] was “homo-dimerization capacity”.

As to “AAQVGLGVGTSLLALGVIIIVLMYRRK [Plexin-B1, TMD of Plexin B1 in BACTH assay]”, in assay [2], the “interaction with PlexA1 TMD” value is listed as “no significant interaction”.

For “SLPAIVSIAVAGGLLIIFIVAVLIAYKRK [Plexin-A4, TMD of Plexin A4 in BACTH assay]”, the “interaction with PlexA1 TMD” value in assay [2] was “positive interactions”.

As to “TLPAIVSIAAGGSLLLIIVIIVLIAYKRK [Plexin-A2, TMD of Plexin A2 in BACTH assay]”, the “interaction with PlexA1 TMD” value in assay [2] is recorded as “weaker interactions”.

On to “IEITLIIFGVMAGVIGTILLISYGIRRK [GPA, TMD of GpA in BACTH assay]”, for which the “interaction with PlexA1 TMD” value in assay [2] is recorded as “no significant interaction”.

As for “NFTGLIAGVVSISTALLLLLGFFLWLKKR [cMET, TMD of c-Met in BACTH assay]”, the “interaction with PlexA1 TMD” value in assay [2] was “no significant interaction”.

B1: Sema3A: PlexA1 ligand (protein, UniProt Q14563 21-771, looked up)
Semaphorin-3A: NYQNGKNNVPRLKLSYKEMLESNNVITFNGLANSSSYHTFLLDEERSRLYVGAKDHIFSFDLVNIKDFQKIVWPVSYTRRDECKWAGKDILKECANFIKVLKAYNQTHLYACGTGAFHPICTYIEIGHHPEDNIFKLENSHFENGRGKSPYDPKLLTASLLIDGELYSGTAADFMGRDFAIFRTLGHHHPIRTEQHDSRWLNDPKFISAHLISESDNPEDDKVYFFFRENAIDGEHSGKATHARIGQICKNDFGGHRSLVNKWTTFLKARLICSVPGPNGIDTHFDELQDVFLMNFKDPKNPVVYGVFTTSSNIFKGSAVCMYSMSDVRRVFLGPYAHRDGPNYQWVPYQGRVPYPRPGTCPSKTFGGFDSTKDLPDDVITFARSHPAMYNPVFPMNNRPIVIKTDVNYQFTQIVVDRVDAEDGQYDVMFIGTDVGTVLKVVSIPKETWYDLEEVLLEEMTVFREPTAISAMELSTKQQQLYIGSTAGVAQLPLHRCDIYGKACAECCLARDPYCAWDGSACSRYFPTAKRRTRRQDIRNGDPLTHCSDLHHDNHHGHSPEERIIYGVENSSTFLECSPKSQRALVYWQFQRRNEERKEEIRVDDHIIRTDQGLLLRSLQQKDSGNYLCHAVEHGFIQTLLKVTLEVIDTEHLEELLHKDDDGDGSKTKEMSNSMTPSQKVWYRDFMQLINHPNLNTMDEFCEQVWKRDRKQRRQRPGHTPGNSNKWKHLQENKKGRNRRTHEFERAPRSV
On to B1, for which the “change of Akt phosphorylation” value in assay [6] is listed as −33%.

The record behind these values is paper PMC5295395, “Inhibition of PlexA1-mediated brain tumor growth and tumor-associated angiogenesis using a transmembrane domain targeting peptide” (Oncotarget, 2016).
